According to patent publication US12116388B2, “Amylin receptor agonists” (Novo Nordisk A/S, priority 2022, dated 2024):
Starred links: 1 amine or outer side, 2 acyl side, 3 side chain; linkers in the order of their positions; H or OH if unused. Residues, ends and D or L forms follow the SMILES beside them. Groups on a side chain read outwards from the residue. *: point of attachment. C18 diacid = O=C(O)CCCCCCCCCCCCCCCCC(=O)*; γGlu = O=C(O)[C@H](CCC(=O)[*:2])N[*:1]

Key:
[1] = molecular target: T1, human amylin receptor (hAMYR3) (Homo sapiens, UniProt O60896+P30988); assay: Human amylin receptor (hAMYR3) in vitro potency assay, CRE-luciferase reporter in BHK cells; type: cell-based; conditions: BHK hAMYR3/CRE-Luc cells, 3 hours incubation, assay buffer with 1% ovalbumin
T1 construct: host or cells: BHK (Baby Hamster Kidney), Hollex-1 cell line further transfected with RAMP3
T1 sequence (O60896 24-148, one chain of several): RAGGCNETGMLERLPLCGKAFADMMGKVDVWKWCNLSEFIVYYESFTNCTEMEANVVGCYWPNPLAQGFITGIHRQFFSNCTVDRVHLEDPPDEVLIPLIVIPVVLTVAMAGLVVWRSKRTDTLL
Text: (§1) Activation of hAMYR3 leads to increased cellular concentrations of cAMP. Consequently, transcription is activated by promotors containing multiple copies of the CAMP response element (CRE). It is thus possible to measure hAMYR3 activity using a CRE-luciferase reporter gene introduced into Baby Hamster Kidney (BHK) cells co-expressing the hAMYR3.
A BHK cell line was stably transfected with the human calcitonin receptor (a) and a CRE-responsive luciferase (CRE-Luc) reporter gene according to methods known to the person skilled in the art (Hollex-1 cell line, obtained from Zymogenetics described in U.S. Pat. No. 5,622,839). The cell line was further transfected with human receptor modifying protein 3 (RAMP3) using standard methods. This turns the human calcitonin receptor into a human amylin-3(a) receptor.
(§2) Cells stocks were prepared by culturing of the stably transfected BHK hAMYR3/CRE-Luc cell line in growth medium consisting of DMEM (Gibco, 31966-021) supplemented with 10% FBS (Gibco, 16140-071), 1% Pen/Strep (Gibco, 15140-122), 0.5 mg/mL Geneticin (Gibco, 10131-027), 0.4 mg/mL Hygromycin (Invitrogen, 10687010) and 250 nM Methotrexate (Sigma, A6770). Cells at approximately 80-90% confluence were washed once with PBS (Gibco 14190-094) and loosened from the cell flasks with Versene (Gibco, 15040-033) or TrypLE™ (Gibco, 12605-010). After centrifugation, the cell pellet was dissolved and diluted to approximately 2.5×10E6 cells/mL in Recovery™ Cell Culture Freezing Medium (Gibco, 12648-010). Cells were aliquoted and stored at −180° C. until use.
(§3) The assay buffer consisted of DMEM without phenol red (Gibco, 11880-028) supplemented with 1× GlutaMAX (Gibco, 35050-038), 10 mM HEPES (Gibco, 15630-056) and 1% (w/v) ovalbumin (Sigma, A5503).
(§4) To perform the assay, BHK hAMYR3/CRE-Luc cells were thawed, washed once in PBS and seeded in 40 μL growth medium in a white 384-well culture plate (PerkinElmer, 6007688) at a cell density of 4.000 cells/well on the day before the experiment. The plate was incubated over night at 37° C. in 5% CO2. On the day of the assay, cells were washed once in assay buffer. Serial dilutions (7-fold dilutions, 7 concentrations Pr. compound and one well containing only assay buffer) of comparator compounds and amylin analogues were performed in assay buffer often starting from approximately 10 nM in 96-well plates and 30 μL of each concentration added to the 384-well assay plate with cells. The assay plate was incubated for 3 hours at 37° C. in 5% CO2 after which 30 μL SteadyLite Plus (PerkinElmer, 6066759) was added to each well. The assay plate was sealed, incubated at room temperature with gentle shaking for 5 minutes followed by 30 minutes incubation without shaking while protected from light. Luminescence was detected on a luminescence plate reader e.g. a Synergy 2 (BioTek).

[2] = molecular target: T2, human calcitonin receptor (hCTR) (Homo sapiens, UniProt P30988); assay: Human calcitonin receptor (hCTR) in vitro potency assay, CRE-luciferase reporter in BHK cells; type: cell-based; conditions: BHK hCTR/CRE-Luc cells, 3 hours incubation, assay buffer with 1% ovalbumin; read-out: hCalcR potency, EC50
T2 construct: host or cells: BHK (Baby Hamster Kidney), Hollex-1 cell line
T2 sequence (P30988 25-474): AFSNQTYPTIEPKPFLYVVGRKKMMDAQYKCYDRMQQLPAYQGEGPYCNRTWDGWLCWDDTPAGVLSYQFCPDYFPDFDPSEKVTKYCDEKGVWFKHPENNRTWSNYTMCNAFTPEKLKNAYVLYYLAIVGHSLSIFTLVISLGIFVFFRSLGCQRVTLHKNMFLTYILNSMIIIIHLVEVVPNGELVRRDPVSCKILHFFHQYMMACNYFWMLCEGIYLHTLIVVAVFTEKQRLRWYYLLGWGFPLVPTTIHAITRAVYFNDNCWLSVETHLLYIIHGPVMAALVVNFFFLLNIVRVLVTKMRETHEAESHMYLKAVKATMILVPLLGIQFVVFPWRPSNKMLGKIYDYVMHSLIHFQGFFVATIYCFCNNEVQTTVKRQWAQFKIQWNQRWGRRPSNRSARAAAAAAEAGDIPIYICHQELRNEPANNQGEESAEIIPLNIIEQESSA
Text: as §1, with “hCTR” for “hAMYR3”, “CAMP.” for “cAMP.”, “hCTR.” for “hAMYR3.”
A BHK cell line was stably transfected with the human calcitonin receptor (a) and a CRE-responsive luciferase (CRE-Luc) reporter gene according to methods known to the person skilled in the art (Hollex-1 cell line, obtained from Zymogenetics described in U.S. Pat. No. 5,622,839).
as §2, with “hCTR/CRE-Luc” for “hAMYR3/CRE-Luc”, “10131-027)” for “10131-027), 0.4 mg/mL Hygromycin (Invitrogen, 10687010)”
as §3
as §4, with “hCTR/CRE-Luc” for “hAMYR3/CRE-Luc”

Row | EC50 [1] [pM] | EC50 [2] [pM] | Structure (SMILES)
1 | 1.88 | 1.99 | CC[C@H](C)[C@H](NC(=O)[C@H](C)NC(=O)CNC(=O)[C@H](Cc1ccccc1)NC(=O)[C@@H]1CCCN1C(=O)[C@H](CC(=O)O)NC(=O)[C@H](CO)NC(=O)[C@H](CO)NC(=O)[C@H](Cc1c[nH]cn1)NC(=O)[C@H](Cc1c[nH]cn1)NC(=O)[C@H](CC(C)C)NC(=O)[C@H](Cc1ccccc1)NC(=O)[C@H](CCC(=O)O)NC(=O)[C@H](C)NC(=O)[C@H](CC(C)C)NC(=O)[C@H](CCCNC(=N)N)NC(=O)[C@H](CCC(N)=O)NC(=O)[C@@H](NC(=O)[C@H](CCC(N)=O)NC(=O)[C@H](C)NC(=O)[C@@H](NC(=O)[C@H](C)NC(=O)[C@H](CC(C)C)NC(=O)[C@H](CC(N)=O)NC(=O)[C@H](CO)NC(=O)[C@H](C)NC(=O)CC[C@H](NC(=O)CCCCCCCCCCCCCCCCC(=O)O)C(=O)O)[C@@H](C)O)[C@@H](C)O)C(=O)N1CCC[C@H]1C(=O)N[C@@H](CO)C(=O)N[C@@H](CO)C(=O)N[C@H](C(=O)N[C@@H](CC(=O)O)C(=O)N[C@H](C(=O)NCC(=O)N1CCC[C@H]1C(=O)N[C@@H](CC(=O)O)C(=O)N[C@H](C(=O)N1CCC[C@H]1C(N)=O)[C@@H](C)O)C(C)C)[C@@H](C)O [Compound 12, N^1-[(4S)-4-carboxy-4-(17-carboxyheptadecanoylamino)butanoyl]-[Ala1,Ser2,Leu4,Ala7,Gln8,Glu14,His17,Asp21,Pro22,Pro27,Asp31,Pro34,Asp35,Pro37]-human amylin] ({C18 diacid-γGlu}-ASNLATAQTQRLAEFLHHSSDPFGAIPSSTDVGPDTP-NH2)
2 | 1.36 | 1.58 | CC[C@H](C)[C@H](NC(=O)[C@@H]1CCCN1C(=O)CNC(=O)[C@H](Cc1ccccc1)NC(=O)[C@H](CC(N)=O)NC(=O)[C@H](CC(=O)O)NC(=O)[C@H](CO)NC(=O)[C@H](CO)NC(=O)[C@H](Cc1c[nH]cn1)NC(=O)[C@H](Cc1c[nH]cn1)NC(=O)[C@H](CC(C)C)NC(=O)[C@H](Cc1ccccc1)NC(=O)[C@H](CCC(=O)O)NC(=O)[C@H](C)NC(=O)[C@H](CC(C)C)NC(=O)[C@H](CCCNC(=N)N)NC(=O)[C@H](C)NC(=O)[C@@H](NC(=O)[C@H](CCC(N)=O)NC(=O)[C@H](C)NC(=O)[C@@H](NC(=O)[C@H](CO)NC(=O)[C@H](CC(C)C)NC(=O)[C@H](CO)NC(=O)CNC(=O)[C@H](C)NC(=O)CC[C@H](NC(=O)CCCCCCCCCCCCCCCCC(=O)O)C(=O)O)[C@@H](C)O)[C@@H](C)O)C(=O)N[C@@H](CC(C)C)C(=O)N1CCC[C@H]1C(=O)N1CCC[C@H]1C(=O)N[C@H](C(=O)N[C@@H](CC(=O)O)C(=O)N[C@H](C(=O)NCC(=O)N[C@@H](CO)C(=O)N[C@@H](CC(N)=O)C(=O)N[C@H](C(=O)N1CCC[C@H]1C(N)=O)[C@@H](C)O)C(C)C)[C@@H](C)O [Compound 13, N^1-[(4S)-4-carboxy-4-(17-carboxyheptadecanoylamino)butanoyl]-[Ala1,Gly2,Ser3,Leu4,Ser5,Ala7,Gln8,Ala10,Glu14,His17,Asp21,Pro25,Pro28,Pro29,Asp31,Pro37]-human amylin] ({C18 diacid-γGlu}-AGSLSTAQTARLAEFLHHSSDNFGPILPPTDVGSNTP-NH2)
3 | 1.38 | 1.19 | CC[C@H](C)[C@H](NC(=O)[C@H](CCCCNC(=O)CC[C@H](NC(=O)CCCCCCCCCCCCCCCCC(=O)O)C(=O)O)NC(=O)CNC(=O)[C@H](Cc1ccccc1)NC(=O)[C@H](CC(N)=O)NC(=O)[C@H](CC(=O)O)NC(=O)[C@H](CO)NC(=O)[C@H](CO)NC(=O)[C@H](Cc1c[nH]cn1)NC(=O)[C@H](Cc1c[nH]cn1)NC(=O)[C@H](CC(C)C)NC(=O)[C@H](Cc1ccccc1)NC(=O)[C@H](CCC(=O)O)NC(=O)[C@H](C)NC(=O)[C@H](CC(C)C)NC(=O)[C@H](CCCNC(=N)N)NC(=O)[C@H](CCC(N)=O)NC(=O)[C@@H](NC(=O)[C@H](CCC(N)=O)NC(=O)[C@H](C)NC(=O)[C@@H](NC(=O)[C@H](CO)NC(=O)[C@H](CC(C)C)NC(=O)[C@H](CCC(N)=O)NC(=O)[C@H](CO)NC(=O)[C@H](C)NC(C)=O)[C@@H](C)O)[C@@H](C)O)C(=O)N[C@@H](CC(C)C)C(=O)N1CCC[C@H]1C(=O)N1CCC[C@H]1C(=O)N[C@H](C(=O)N[C@@H](CC(=O)O)C(=O)N[C@H](C(=O)NCC(=O)N[C@@H](CO)C(=O)N[C@@H](CC(N)=O)C(=O)N[C@H](C(=O)N1CCC[C@H]1C(N)=O)[C@@H](C)O)C(C)C)[C@@H](C)O [Compound 18, N^1-acetyl,N{Epsilon-25}-[(4S)-4-carboxy-4-(17-carboxyheptadecanoylamino)butanoyl]-[Ala1,Ser2,Gln3,Leu4,Ser5,Ala7,Gln8,Glu14,His17,Asp21,Lys25,Pro28,Pro29,Asp31,Pro37]-human amylin] (Ac-ASQLSTAQTQRLAEFLHHSSDNFGK([γGlu-C18 diacid])ILPPTDVGSNTP-NH2)
